Results reported in US20250304353A1, “ANTIMICROBIAL BOTTLE WITH ANTIMICROBIAL SEAL” (Microban Products Company, priority 2017, published 2025).

Test system: Aspergillus niger
Test: Anti-fungal efficacy of polypropylene cap, agar plate method AATCC 30 Part 3 (2017e)
Type: cell-based
Conditions: injection molded polypropylene cap with 2.0 wt % Microban IF1-5033-050 (0.1 wt % thiabendazole); MEA plates, up to 7 days at about 30° C.; two replicate sub-samples
Experimental: The anti-fungal efficacy of the polypropylene cap containing thiabendazole was tested. The fungicidal activity was determined using the agar plate method AATCC 30 Part 3 (2017e). Individual plates of Malt Extract Agar (MEA) were inoculated with Aspergillus niger from primary stock cultures held at about 2° C. to about 8° C. and then incubated at about 30° C.±2° C. for up to 7 days to produce mature spores. A spore suspension was prepared from the plates in 10 mL aliquots of sterile distilled water (SDW) and filtered using glass wool. The spore suspension was adjusted using SDW so that it contained ≥10^5 spores mL^−1. Two replicate sub-samples (i.e., the polypropylene cap with thiabendazole) were placed on the surface of individual MEA plates. A 100 μL aliquot of the spore suspension of Aspergillus niger was spread over the surface of both the sub-sample and the surrounding media. The sample plates were incubated for up to 7 days at about 30° C.±2° C. […] An injection molded polypropylene cap treated with 2.0 wt % of Microban IF1-5033-050 (i.e., 0.1 wt % of thiabendazole) was tested with Aspergillus niger.

In the case of `c1ccc2[nH]c(-c3cscn3)nc2c1` [thiabendazole], the “fungal growth (microscopic and/or macroscopic) on sub-sample and surrounding media” value is reported as “No surface growth”.
